Experimental data: patent US20150315188A1, “COMPOUNDS AND METHODS FOR TREATMENT OF HYPERTENSION” (MEDIVATION TECHNOLOGIES, INC., priority 2012, published 2015)

What was measured:
[1] = target: T1, rat adrenergic α1B receptor (Rattus norvegicus, UniProt P15823); assay: Radioligand binding, adrenergic α1B (Protocol Group A); conditions: 0.1 μM compound, [3H]Prazosin, 0.1 µM
T1 construct: rat adrenergic α1B receptor obtained from Wistar Rat liver; from tissue; host or cells: Wistar rat liver
T1 sequence (P15823 1-515): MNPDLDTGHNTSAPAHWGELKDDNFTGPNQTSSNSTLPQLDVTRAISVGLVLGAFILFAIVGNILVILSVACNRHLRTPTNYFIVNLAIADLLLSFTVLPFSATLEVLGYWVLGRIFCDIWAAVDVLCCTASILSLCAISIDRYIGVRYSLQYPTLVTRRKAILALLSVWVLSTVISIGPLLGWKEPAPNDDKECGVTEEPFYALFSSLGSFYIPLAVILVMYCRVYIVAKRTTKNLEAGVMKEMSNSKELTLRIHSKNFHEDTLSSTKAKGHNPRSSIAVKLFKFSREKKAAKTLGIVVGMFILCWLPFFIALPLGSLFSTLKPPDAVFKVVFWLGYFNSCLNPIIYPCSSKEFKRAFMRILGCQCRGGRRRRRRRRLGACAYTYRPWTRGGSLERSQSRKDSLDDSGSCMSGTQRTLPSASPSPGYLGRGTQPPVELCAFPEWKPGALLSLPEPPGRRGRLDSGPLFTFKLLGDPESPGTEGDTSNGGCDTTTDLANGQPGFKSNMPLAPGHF
Description: To evaluate in radioligand binding assays the activity of compounds of the invention, rat adrenergic α1B receptor obtained from Wistar Rat liver (Garcia-S'ainz, J. et al, Biochem. Biophys. Res. Commun. 186:760, 1992; Michel, A. et al, Br. J. Pharmacol. 98:883, 1989) in a modified Tris-HCl buffer (50 mM Tris-HCl buffer, pH 7.4, 0.5 mM EDTA) was used. Compounds of the invention were incubated with 0.25 nM [^3H]Prazosin for 60 min at 25° C. Non-specific binding was estimated in the presence of 10 μM phentolamine. Receptor proteins were filtered and washed, the filters were then counted to determine [^3H]Prazosin specifically bound. Compounds were screened at 1 μM or lower, using 1% DMSO as vehicle. Compounds of the invention were tested in this biochemical assay and percent inhibition of specific binding was determined. Biochemical assay results are presented as the percent inhibition of specific binding in Table B1a.

[2] = target: T2, Human adrenergic α2A receptor (Homo sapiens, UniProt P08913); assay: Radioligand binding, adrenergic α2A (Protocol Group A); design: expressed in transfected cells; host or cells: insect Sf9 cells; conditions: 0.1 μM compound; for percent inhibition of specific binding, Adrenergic α2A: [3H]MK-912, 0.1 µM
T2 sequence (P08913 1-465): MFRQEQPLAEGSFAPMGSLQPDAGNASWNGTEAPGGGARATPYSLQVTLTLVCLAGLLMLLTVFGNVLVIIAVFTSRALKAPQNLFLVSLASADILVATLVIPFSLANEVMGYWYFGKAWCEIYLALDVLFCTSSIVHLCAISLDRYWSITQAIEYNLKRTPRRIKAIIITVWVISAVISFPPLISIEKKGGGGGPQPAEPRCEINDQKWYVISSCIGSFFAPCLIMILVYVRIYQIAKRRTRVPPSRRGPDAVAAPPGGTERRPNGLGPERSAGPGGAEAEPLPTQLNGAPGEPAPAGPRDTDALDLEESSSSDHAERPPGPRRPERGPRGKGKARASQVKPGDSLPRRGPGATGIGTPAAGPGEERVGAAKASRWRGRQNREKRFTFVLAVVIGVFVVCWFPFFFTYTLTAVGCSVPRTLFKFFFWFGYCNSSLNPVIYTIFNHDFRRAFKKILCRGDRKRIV
Description: To evaluate in radioligand binding assays the activity of compounds of the invention, human recombinant adrenergic α2A receptor expressed in insect Sf9 cells (Uhlen, S. et al, J. Pharmacol. Exp. Ther. 271:1558, 1994) in a modified Tris-HCl buffer (50 mM Tris-HCl, pH 7.4, 12.5 mM MgCl2, 2 mM EDTA) was used. Compounds of invention were incubated with 1 nM [^3H]MK-912 for 60 min at 25° C. MK912 is (2S-trans)-1,3,4,5′,6,6′,7,12b-octahydro-1′,3′-dimethyl-spiro[2H-benzofuro[2,3-a]quinolizine-2,4′(1′H)-pyrimidin]-2′(3′H)-one hydrochloride. Non-specific binding was estimated in the presence of 10 μM WB-4101 (2-(2,6-Dimethoxyphenoxyethyl)aminomethyl-1,4-benzodioxane hydrochloride). Receptor proteins were filtered and washed, the filters were then counted to determine [^3H]MK-912 specifically bound. Compounds were screened at 1 μM or lower, using 1% DMSO as vehicle. Compounds of the invention were tested in this biochemical assay and percent inhibition of specific binding was determined. Biochemical assay results are presented as the percent inhibition of specific binding in Table B1a.

[3] = target: T3, Human adrenergic α2B receptor (Homo sapiens, UniProt P18089); assay: Radioligand binding, adrenergic α2B (Protocol Group A); design: expressed in transfected cells; host or cells: CHO-K1; conditions: 0.03 μM compound, [3H]Rauwolscine, 0.03 µM
T3 sequence (P18089 1-450): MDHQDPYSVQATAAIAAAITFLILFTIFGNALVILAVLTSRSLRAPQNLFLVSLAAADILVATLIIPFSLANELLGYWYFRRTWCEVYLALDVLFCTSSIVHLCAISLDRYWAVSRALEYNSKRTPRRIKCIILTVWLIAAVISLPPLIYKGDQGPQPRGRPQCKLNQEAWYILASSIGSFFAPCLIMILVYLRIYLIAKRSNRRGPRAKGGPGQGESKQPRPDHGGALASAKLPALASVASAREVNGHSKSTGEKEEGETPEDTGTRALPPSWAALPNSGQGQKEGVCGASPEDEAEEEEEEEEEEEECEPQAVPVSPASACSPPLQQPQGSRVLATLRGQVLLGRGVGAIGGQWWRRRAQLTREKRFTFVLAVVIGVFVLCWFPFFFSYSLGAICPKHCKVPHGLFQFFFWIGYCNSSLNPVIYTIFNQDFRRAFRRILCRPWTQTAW
Description: To evaluate in radioligand binding assays the activity of compounds of the invention, human recombinant adrenergic α2B receptor expressed in Chinese hamster ovary (CHO) K1 cells (Uhlen, S. et al, Eur. J. Pharmacol. 343(1):93, 1998) in a modified Tris-HCl buffer (50 mM Tris-HCl, pH 7.4, 12.5 mM MgCl2, 1 mM EDTA, 0.2% BSA) was used. Compounds of the invention were incubated with 2.5 nM [3H]Rauwolscine for 60 min at 25° C. Non-specific binding was estimated in the presence of 10 μM Prazosin. Receptor proteins were filtered and washed, the filters were then counted to determine [3H]Rauwolscine specifically bound. Compounds were screened at 1 μM or lower, using 1% DMSO as vehicle. Compounds of the invention were tested in this biochemical assay and percent inhibition of specific binding was determined. Biochemical assay results are presented as the percent inhibition of specific binding in Table B1a.

[4] = target: T3, Human adrenergic α2B receptor; assay: β-Arrestin GPCR functional assay, adrenergic α2B (Protocol B); format: cell-based; conditions: β-arrestin, antagonist vs nor-epinephrine EC80; read-out: IC50 Adrenergic α2B
Procedure, shortened: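 CHO cells overexpressing human α2B (PathHunter β-arrestin), 12,000 per well, 24 h at 37° C; compounds in 1% DMSO 30 min, then 50 nM norepinephrine (EC80) 90 min at 37° C.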

[5] = target: T3, Human adrenergic α2B receptor; assay: Radioligand binding, adrenergic α2B (Protocol Group B); design: purchased Milipore (Millipore); conditions: Protocol Group B; for Percentage inhibition of ligand binding, Adrenergic α2B (10 nM): 10 nM compound, 0.01 µM; for Percentage inhibition of ligand binding, Adrenergic α2B (30 nM): 30 nM compound, 0.03 µM; for Ki: estimated Ki, read-out: Ki α2B
Procedure, shortened: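 Compounds at various concentrations in 1% DMSO were tested on recombinant membranes in Tris-HCl pH 7.4 buffer containing MgCl2, CaCl2 and 0.2% BSA.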

[6] = target: T4, Human adrenergic α1B receptor (Homo sapiens, UniProt P35368); assay: Radioligand binding, adrenergic α1B (Protocol Group B); design: purchased Milipore (Millipore); conditions: Protocol Group B; for Percentage inhibition of ligand binding, Adrenergic α1B (0.1 μM): 0.1 μM compound; for Percentage inhibition of ligand binding, Adrenergic α1B (0.3 μM): 0.3 μM compound
T4 sequence (P35368 1-520): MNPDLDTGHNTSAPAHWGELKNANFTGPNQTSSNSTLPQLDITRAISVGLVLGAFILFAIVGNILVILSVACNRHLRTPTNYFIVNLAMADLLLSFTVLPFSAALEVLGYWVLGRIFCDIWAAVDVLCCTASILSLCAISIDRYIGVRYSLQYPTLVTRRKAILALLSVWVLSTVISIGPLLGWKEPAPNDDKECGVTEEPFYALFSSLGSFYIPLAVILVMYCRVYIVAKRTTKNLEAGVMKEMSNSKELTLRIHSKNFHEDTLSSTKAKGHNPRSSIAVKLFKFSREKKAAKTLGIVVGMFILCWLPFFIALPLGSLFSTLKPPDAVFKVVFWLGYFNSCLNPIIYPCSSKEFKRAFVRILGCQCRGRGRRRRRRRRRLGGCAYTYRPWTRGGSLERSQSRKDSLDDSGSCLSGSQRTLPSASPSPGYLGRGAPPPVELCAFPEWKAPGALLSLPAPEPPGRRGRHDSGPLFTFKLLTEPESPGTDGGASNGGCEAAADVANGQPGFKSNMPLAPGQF
Procedure, shortened: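 Values are percent inhibition of specific [3H]prazosin (0.3 nM) binding or estimated Ki, from filtration counting. Human α1B recombinant membranes, Tris-HCl pH 7.4 buffer with MgCl2 and EDTA, 60 min at 25 °C, 1% DMSO vehicle; 10 μM prazosin defined nonspecific binding.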

[7] = target: T2, Human adrenergic α2A receptor; assay: β-Arrestin GPCR functional assay, adrenergic α2A (Protocol B); format: cell-based; conditions: β-arrestin, antagonist vs nor-epinephrine EC80
Description: To evaluate the activity of compounds in β-Arrestin GPCR functional assays, recombinant CHO cell line (DiscoveRX), over expressed with human adrenergic α2A receptor were used. The experiment was done with kit of DiscoveRX as per recommended protocol of the supplier. Cells were harvested from culture flask using cell dissociation solution (CDS) and plated at a density of 12,000 cells/well in CP reagent (supplied with the kit) in a half area 96-well white polystyrene plate. After 24 h incubation at 37° C., compounds at various concentrations in 1% (final) DMSO were charged to the cells for 30 min at 37° C. Active nor-epinephrine (-NE) at its EC80 concentrations (270 nM) were then added to the cells and incubated for another 90 min at 37° C. Detection mix was prepared by mixing of Path Hunter cell assay buffer, Emerald II solution and Galactone star solution in a ratio of 19:5:1 and incubated with the cells for 60 min at RT in the dark. The reading was taken in Envision at luminescence mode. Biochemical assay results are presented as the percent Inhibition in Table B2a, or IC50 values in Table B2b.

[8] = target: T2, Human adrenergic α2A receptor; assay: Radioligand binding, adrenergic α2A (Protocol Group B); design: purchased Milipore (Millipore); conditions: Protocol Group B; for Percentage inhibition of ligand binding, Adrenergic α2A (0.1 μM): 0.1 μM compound; for Percentage inhibition of ligand binding, Adrenergic α2A (0.3 μM): 0.3 μM compound; for Ki: estimated Ki
Procedure, shortened: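 Compounds (1% DMSO vehicle, various concentrations) competed against 2 nM [^3H]MK-912 on recombinant receptor membranes for 60 min at 25° C, Tris-HCl pH 7.4 buffer with Mg2+, Ca2+, BSA. Bound radioligand filtered and counted; 10 μM rauwolscine set nonspecific binding. Values: percent inhibition of specific binding or estimated Ki.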

| inhibition at 0.1 µM ([2]; [3H]MK-912, read-out: percent inhibition of specific binding, Adrenergic α2A) [%] | IC50 [4] [nM] | Percentage inhibition of ligand binding, Adrenergic α2B (10 nM) [5] [%] | Percentage inhibition of ligand binding, Adrenergic α2B (30 nM) [5] [%] | Ki [5] [nM] | Percentage inhibition of ligand binding, Adrenergic α1B (0.1 μM) [6] [%] | Percentage inhibition of ligand binding, Adrenergic α1B (0.3 μM) [6] [%] | Ki ([6]; estimated Ki) [nM] | IC50 [7] [nM] | Percentage inhibition of ligand binding, Adrenergic α2A (0.1 μM) [8] [%] | Percentage inhibition of ligand binding, Adrenergic α2A (0.3 μM) [8] [%] | Ki [8] [nM] | SMILES | percent inhibition of specific binding, Adrenergic α1B [1] [%] | percent inhibition of specific binding, Adrenergic α2A [2] [%] | percent inhibition of specific binding, Adrenergic α2B [3] [%] |
| --- | --- | --- | --- | --- | --- | --- | --- | --- | --- | --- | --- | --- | --- | --- | --- |
| – | – | – | – | – | – | – | – | – | – | – | – | c1cncc(CCn2c3c(c4ccccc42)C2CCCN2CC3)c1 (single isomer, unassigned) [2a] | 28 | 31 | 102 |
| – | – | – | – | – | – | – | – | – | – | – | – | c1cncc(CCn2c3c(c4ccccc42)C2CCCN2CC3)c1 (single isomer, unassigned) [2b] | 4 | 13 | 1 |
| 21 | – | – | – | – | – | – | – | – | – | – | – | Cc1ccc2c(c1)c1c(n2CC(OC(=O)N2CCCC2)c2ccncc2)CCN(C)C1 (single isomer, unassigned) [4a] | 11 | – | 39 |
| – | – | – | – | – | – | – | – | – | – | – | – | Cc1ccc(C(F)Cn2c3c(c4cccnc42)C2CCCN2CC3)cn1 (single isomer, unassigned) [10a] | −3 | 0 | 4 |
| – | 13 | 96 | 99 | 0.91 | 62 | 86 | 26.2 | 787 | 85 | 94 | 8.9 | Cc1ccc2c(c1F)c1c(n2CC(C)(O)c2cccnc2)CCN2CCCC12 (single isomer, unassigned) [87c] | – | – | – |
| – | 44 | 87 | 97 | 1.54 | 34 | 67 | – | 3680 | 57 | 79 | 54.9 | Cc1ccc2c(c1F)c1c(n2CC(C)(O)c2cccnc2)CCN2CCCC12 (single isomer, unassigned) [87d] | – | – | – |
